These results are taken from PMC7825173, “4’-O-Methylbroussochalcone B as a novel tubulin polymerization inhibitor suppressed the proliferation and migration of acute myeloid leukaemia cells” (BMC Cancer, 2021).

In experiment [1] the test system is colchicine binding site of β-tubulin. The experiment in a line: EBI competition assay in ML-2 cells. The experiment is classed as cell-based, human. The conditions noted are these: preincubation at 10 μM, Western Blot. The procedure: ML-2 cells were seeded in 6-well plates for 24 h. 4′-O-Methylbroussochalcone B and colchicine treated them for 2 h respectively. Then, EBI were added. After 90 min, ML-2 cells were harvested to do Western Blot analysis. The signals were then visualized using chemiluminescent substrate (Zhengzhou research company, Zhengzhou, China).
On the technique in general: Immunoblotting shows a protein as a band on a membrane.

A further experiment concerns tubulin. The experiment can be described thus: Tubulin polymerization assay in vitro. Type of experiment: biochemical. As to conditions: 2 mg/mL tubulin, 60 min, 37 °C; read-out: IC50, inhibition of tubulin polymerization. The procedure: An amount of 2 mg/mL tubulin was resuspended in PEM buffer, consisted of 80 mM PIPES (pH 6.9), 2 mM MgCl2, 0.5 mM EGTA, and 15% glycerol. 4′-O-Methylbroussochalcone B (1 μM, 3 μM and 6 μM) was preincubated on ice. The reaction was monitored by a spectrophotometer in absorbance at 340 nm at 37 °C.
The tubulin assembly assay measured the extent of assembly of 2 mg/mL tubulin after 60 min at 37 °C. Data are presented as mean from three independent experiments.
The tubulin assembly assay measured the extent of assembly of 2 mg/mL tubulin after 60 minutes at 37 °C. Data are presented as mean from three independent experiments.

Experiment [2] has as its system ML-2 cells. The experiment in a line: Cell cycle assay, ML-2 cells. Type of experiment: cell-based, human. The conditions noted are these: 2 μM and 4 μM, 48 h. As for the experimental part: (§1) The samples of fixed cells were stained with 50 μg/ml Propidium iodide (PI, Sigma) in the dark for 30 min at room temperature, following the manufacturer’s protocol. Then the samples were tested by flow cytometer (Becton, Dickinson and Company, NJ). Data were analyzed via CellQuest software.

Experiment [3] relates to ML-2 cells. The experiment in a line: Transwell migration assay, ML-2 cells. The experiment is classed as cell-based, human. The conditions noted are these: 24 h. The procedure: (§2) The cells (100 μl, 1 × 10^6 cells/ml) were suspended in the medium which contained 0.1% FBS and plated to the upper chamber of the transwell. The lower wells were incubated with the addition of the medium (600 μl per well), which included CCL25 (100 ng/ml; Cedarlane Laboratories, Burlington, Canada) and 0.1% FBS. The cells were hatched for 24 h at 37 °C with 5% CO2. Finally, the cells in the lower chamber were counted under a light microscope.

The test system of experiment [4] is ML-2 cells. The experiment can be described thus: Apoptosis assay (Annexin V-FITC/PI flow cytometry), ML-2 cells. The experiment is classed as cell-based, human. As to conditions: 48 h. As for the experimental part:
(§3) ML-2 cells and OCI-AML5 cells were seeded in 6-well culture plates and treated with certain concentration of 4′-O-Methylbroussochalcone B for 48 h. Cells were harvested and suspended in binding buffer containing Annexin V-FITC (0.5 mg/mL) and PI (0.5 mg/mL) then. After that, samples were incubated for 25 min in dark and analyzed with flow cytometry (Becton, Dickinson and Company, NJ).
(In general: Flow cytometry measures light scatter and fluorescence of single cells or particles in a stream.)

Experiment [5] deals with OCI-AML5 cells. The experiment can be described thus: MTT antiproliferative assay, OCI-AML5 cells. The conditions noted are these: 72 h. The experiment is classed as cell-based, human. As for the experimental part:
(§4) Cells were grown in a 5% CO2 incubator at 37 °C. We used trypsin to digest cells in logarithmic growth phase. Then, we plated the cells in 96-well plates at 5000 cells per well evenly. After cell adherence, chalcones were added in the 96-well plates for 48 h or 72 h. We added MTT reagent to each well and incubated for 2 h in the incubator. Finally, the absorbance value was measured at 490 nm after treatment with DMSO.

For experiment [6], the system named is OCI-AML5 cells. The experiment can be described thus: Apoptosis assay (Annexin V-FITC/PI flow cytometry), OCI-AML5 cells. Type of experiment: cell-based, human. As to conditions: 48 h. The procedure: as §3
The next experiment has as its system CESS cells. The experiment in a line: MTT antiproliferative assay, CESS cells. The experiment is classed as cell-based, human. As to conditions: 72 h. As for the experimental part: as §4
For experiment [7], the system named is OCI-AML5 cells. The experiment can be described thus: Cell cycle assay, OCI-AML5 cells. The experiment is classed as cell-based, human. As to conditions: 2 μM and 4 μM, 48 h. The procedure: as §1
For experiment [8], the system named is OCI-AML5 cells. The experiment can be described thus: Transwell migration assay, OCI-AML5 cells. Type of experiment: cell-based, human. As to conditions: 24 h. As for the experimental part: as §2
In experiment [9] the test system is ML-2 cells. The experiment can be described thus: MTT antiproliferative assay, ML-2 cells. The experiment is classed as cell-based, human. The conditions noted are these: 72 h. As for the experimental part:
as §4
On the technique in general: Tetrazolium assays rely on reduction of a dye to a coloured formazan, in cell work by metabolically active cells.

Another experiment relates to GDM-1 cells. The experiment can be described thus: MTT antiproliferative assay, GDM-1 cells. The experiment is classed as cell-based, human. The conditions noted are these: 72 h; for cell proliferation rate: 16 μM. The procedure: as §4
A further experiment relates to β-tubulin. The experiment can be described thus: Immunofluorescence staining of β-tubulin in ML-2 cells. The experiment is classed as cell-based, human. As to conditions: 1 μM and 2 μM, 24 h. The procedure:
ML-2 cells were seeded into 6-well plates and then treated with 4′-O-Methylbroussochalcone B for 24 h. ML-2 cells were washed with phosphate buffer solution (PBS), and then fixed in 4% paraformaldehyde. After blocking for 0.5 h in 5% goat serum albumin, ML-2 cells were incubated with anti-β-tubulin for 2 h. Then, ML-2 cells were washed by PBS and labeled by 4, 6-diamidino-2-phenylindole.

On to 4′-O-Methylbroussochalcone B, for which the “formation of EBI: β-tubulin adduct” value in [1] is “prevented the formation of EBI: β-tubulin adduct”. Besides, the IC50 (commonly the concentration that inhibits the measured activity by half) with tubulin turned out to be 2.86 µM; in the experiment with OCI-AML5 cells [5] it was 2.03 µM; with CESS cells, 4.2 µM; in the experiment on ML-2 cells [9] it was 1.16 µM; with GDM-1 cells it was 3.57 µM. Also, the “cell cycle distribution (G2-M phase)” value with ML-2 cells [2] and with OCI-AML5 cells [7] was “arrested in the G2-M phase significantly” each time. The cell migration result in the experiment on ML-2 cells [3] and with OCI-AML5 cells [8] was “evidently inhibited” in each case. Further, the “percentage of apoptotic cells (early and late phase)” value is listed as 13.68% with ML-2 cells [4] (2 μM) and 55.04% with ML-2 cells [4] (4 μM). The apoptotic rate came to 12.84% with OCI-AML5 cells [6] (2 μM) and 24.13% in the experiment with OCI-AML5 cells [6] (4 μM). Also, the cell proliferation rate in the experiment with GDM-1 cells is reported as 8.14%. In the experiment with β-tubulin, the “expression of β-tubulin (immunofluorescence)” value is “suppressed in a concentration-dependent manner”.
With `CC1(C)C=Cc2cc(C(=O)/C=C/c3ccc(O)cc3)c(O)cc2O1` [Bavachromene], the IC50 with tubulin was found to be 3.11 ± 0.1 µM. In addition, the cell proliferation rate in the experiment with GDM-1 cells is on record as 29.40%.
On the same counts, the results for `CC(C)=CCc1cc(C(=O)/C=C/c2ccc(O)cc2)c(O)cc1O` [Broussochalcone B] are 5.13 ± 0.45 µM and 29.67%.
On the same counts, the results for `CC1(C)CCc2c(ccc(C(=O)/C=C/c3ccc(O)cc3)c2O)O1` [Dorsmanin A] are 4.39 ± 0.26 µM and 36.67%.
On the same counts, the results for `CC(C)=CCc1c(O)ccc(C(=O)/C=C/c2ccc(O)cc2)c1O` [Isobavachalcone] are 6.38 ± 0.12 µM and 57.33%.
Take `CC1(C)C=Cc2c(ccc(C(=O)/C=C/c3ccc(O)cc3)c2O)O1` [Isobavachromene]: the IC50 with tubulin stood at 8.24 ± 0.74 µM. In the experiment with GDM-1 cells, the cell proliferation rate was determined as 69.00%.
